# Results reported in US5409933A, “Quinoline derivatives and processes for preparing the same” (priority 1993, dated 1995).
# Where a name gives a salt, the structure may show the parent alone. Read-outs that look alike come from different tables or passages of the source.
# Experiments:
# Assay in all cases: In Vitro Anti-Bacterial Activity Test (MIC, agar dilution)
# Format in all cases: cell-based
# [1] = test system: Enterobacter cloacae 1321E; details: Enterobacter cloacae 1321E, Muller-Hinton agar, 37° C., 18 hours
# Summary of the method: (§1)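 Each strain, at 10^7 C.F.U./ml, was spotted onto Muller-Hinton agar carrying serial compound dilutions. Growth after an 18-hour incubation at 37° C. defined the minimum inhibitory concentration.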
# Enterobacter cloacae P99 = test system: Enterobacter cloacae P99
# Summary of the method: (§2)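 MIC was determined by agar dilution on Mueller-Hinton agar. Each strain was inoculated at 10^7 C.F.U./ml, and growth was observed after 18 hours at 37° C, with ciprofloxacin as control agent.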
# Escherichia coli 078 = test system: Escherichia coli 078
# Summary of the method: as §1
# Escherichia coli 1507E = details: Muller-Hinton agar, 37° C.
# Summary of the method: as §1
# Escherichia coli DC0 = details: Muller-Hinton agar, 37° C., 18 hours
# Summary of the method: as §1
# Escherichia coli DC2 = test system: Escherichia coli DC2
# Summary of the method: as §1
# Escherichia coli TEM = details: Muller-Hinton agar, 37° C.
# Summary of the method: as §2
# [2] = test system: Klebsiella aerogenes 1522E
# Summary of the method: as §1
# Klebsiella oxytoca 1082E = details: Klebsiella oxytoca 1082E, Muller-Hinton agar, 37° C., 18 hours
# Summary of the method: as §1
# [3] = test system: Pseudomonas aeruginosa 1592E; details: Muller-Hinton agar, 37° C., 18 hours
# Summary of the method: as §1
# [4] = test system: Pseudomonas aeruginosa 1771M; details: Muller-Hinton agar, 37° C.
# Summary of the method: as §1
# [5] = test system: Pseudomonas aeruginosa 1771; details: Pseudomonas aeruginosa 1771, Muller-Hinton agar, 37° C., 18 hours
# Summary of the method: as §1
# [6] = test system: Pseudomonas aeruginosa 9027; details: Muller-Hinton agar, 37° C., 18 hours
# Summary of the method: as §1
# Salmonella typhimurium = details: Salmonella typhimurium, Muller-Hinton agar, 37° C., 18 hours
# Summary of the method: as §1
# [7] = test system: Staphylococcus aureus 285; details: Staphylococcus aureus 285, Muller-Hinton agar, 37° C., 18 hours
# Summary of the method: as §1
# [8] = test system: Staphylococcus aureus 503; details: Staphylococcus aureus 503, Muller-Hinton agar, 37° C., 18 hours
# Summary of the method: as §1
# [9] = test system: Staphylococcus aureus SG511; details: Staphylococcus aureus SG511, Muller-Hinton agar, 37° C., 18 hours
# Summary of the method: as §1
# [10] = test system: Streptococcus faecium MD8b; details: Muller-Hinton agar, 37° C., 18 hours
# Summary of the method: as §1
# [11] = test system: Streptococcus pyogenes 308A; details: Muller-Hinton agar, 37° C., 18 hours
# Summary of the method: as §1
# [12] = test system: Streptococcus pyogenes 77A; details: Streptococcus pyogenes 77A, Muller-Hinton agar, 37° C., 18 hours
# Summary of the method: as §1
# [13] = Enterobacter cloacae, P99, 18 h
# [14] = Klebsiella aerogenes, 1522E, 18 h, Klebsiella aerogenes 1522E, Muller-Hinton agar, 37° C., 18 hours, read-out: MIC
# [15] = Pseudomonas aeruginosa, 1771M, 18 h
# [16] = Salmonella enterica, read-out: MIC
# [17] = Staphylococcus aureus, 285, 18 h, read-out: MIC
# [18] = Enterococcus faecium, read-out: MIC
# [19] = Escherichia coli 078, Muller-Hinton agar, 37° C., 18 hours, read-out: MIC
Molecule,MIC ([1]; read-out: MIC),MIC (Enterobacter cloacae P99; [13]),"MIC (Escherichia coli 078; Escherichia coli, 078, 18 h)","MIC (Escherichia coli 1507E; Escherichia coli, 1507E, 18 h)",MIC (Escherichia coli DC0; read-out: MIC),"MIC (Escherichia coli DC2; Escherichia coli, DC2, 18 h)","MIC (Escherichia coli TEM; Escherichia coli, 18 h)","MIC [2, 14]",MIC (Klebsiella oxytoca 1082E; read-out: MIC),MIC ([3]; read-out: MIC),"MIC [4, 15]",MIC ([5]; read-out: MIC),MIC ([6]; read-out: MIC),MIC (Salmonella typhimurium; [16]),"MIC [7, 17]",MIC ([8]; read-out: MIC),MIC ([9]; read-out: MIC),"MIC [10, 18]",MIC ([11]; read-out: MIC),MIC ([12]; read-out: MIC),also measured
"CCOC(=O)C(C(=O)OCC)C(=O)c1cn(C2CC2)c2c(OC)c(N3CC[C@@H](NC)C3)c(F)cc2c1=O [Example 58, 1-cyclopropyl-6-fluoro-8-methoxy-7-(3-3R-methylaminopyrrolidin-1-yl)-3-(2,2-diethoxycarbonylacetyl)-1,4-dihydro-4-oxoquinoline hydrochloride]",0.098 µg/mL,0.098 µg/mL,0.098 µg/mL,0.391 µg/mL,1.56 µg/mL,0.195 µg/mL,0.098 µg/mL,0.195 µg/mL,0.049 µg/mL,1.56 µg/mL,0.781 µg/mL,1.56 µg/mL,1.56 µg/mL,0.195 µg/mL,0.195 µg/mL,0.195 µg/mL,0.195 µg/mL,1.56 µg/mL,1.56 µg/mL,1.56 µg/mL,
"CNCC1=CCN(c2c(F)cc3c(=O)c(C(=O)CC#N)cn(C4CC4)c3c2Cl)C1 [Example 43, 1-cyclopropyl-6-fluoro-8-chloro-7-(3-methylaminomethyl-2,5-dihydropyrrol-1-yl)-3-(2-cyanoacetyl)-1,4-dihydro-4-oxoquinoline hydrochloride]",0.049 µg/mL,0.391 µg/mL,,,3.12 µg/mL,1.56 µg/mL,1.56 µg/mL,0.781 µg/mL,0.098 µg/mL,12.5 µg/mL,1.56 µg/mL,3.12 µg/mL,6.25 µg/mL,0.195 µg/mL,3.12 µg/mL,0.195 µg/mL,3.12 µg/mL,12.5 µg/mL,25 µg/mL,25 µg/mL,"MIC (Escherichia coli 078; [19]): 6.25 µg/mL; MIC (Escherichia coli 1507E; 18 hours, read-out: MIC): 12.5 µg/mL"
"CCOC(=O)C(C(=O)OCC)C(=O)c1cn(C2CC2)c2c(Cl)c(N3CC[C@H](N)C3)c(F)cc2c1=O [Example 24, 1-cyclopropyl-6-fluoro-8-chloro-7-(3-3S-aminopyrrolidin-1-yl)-3-(2,2-diethoxycarbonylacetyl)-1,4-dihydro-4-oxoquinoline hydrochloride]",< 0.002 µg/mL,< 0.002 µg/mL,,,0.098 µg/mL,0.025 µg/mL,< 0.002 µg/mL,0.013 µg/mL,< 0.002 µg/mL,0.391 µg/mL,0.049 µg/mL,0.391 µg/mL,0.391 µg/mL,< 0.002 µg/mL,0.049 µg/mL,0.049 µg/mL,0.049 µg/mL,0.391 µg/mL,0.391 µg/mL,0.391 µg/mL,"MIC (Escherichia coli 078; [19]): < 0.002 µg/mL; MIC (Escherichia coli 1507E; 18 hours, read-out: MIC): < 0.002 µg/mL"
"1-cyclopropyl-6-fluoro-8-chloro-7-(7-amino-5-azaspiro[2.4]hept-5-yl)-3-(2- nitroacetyl)-1,4-dihydro-4-oxoquinoline hydrochloride [Example 35]",,,,,,,,,,,,,,,,,,,,,"MIC [1]: 0.025 µg/mL; MIC (Enterobacter cloacae P99; Enterobacter cloacae P99, Muller-Hinton agar, 37° C., 18 hours): 0.025 µg/mL; MIC (Escherichia coli 078; Escherichia coli 078, Muller-Hinton agar, 37° C., 18 hours): 0.007 µg/mL; MIC (Escherichia coli 1507E; 18 hours): 0.007 µg/mL; MIC (Escherichia coli DC0): 0.098 µg/mL; MIC (Escherichia coli DC2; Escherichia coli DC2, Muller-Hinton agar, 37° C., 18 hours): 0.049 µg/mL; MIC (Escherichia coli TEM; 18 hours): 0.013 µg/mL; MIC ([2]; Klebsiella aerogenes 1522E, Muller-Hinton agar, 37° C., 18 hours): 0.013 µg/mL; MIC (Klebsiella oxytoca 1082E): < 0.002 µg/mL; MIC [3]: 0.781 µg/mL; MIC ([4]; 18 hours): 0.098 µg/mL; MIC [5]: 0.391 µg/mL; MIC [6]: 0.781 µg/mL; MIC (Salmonella typhimurium): 0.013 µg/mL; MIC [7]: 0.025 µg/mL; MIC [8]: 0.013 µg/mL; MIC [9]: 0.025 µg/mL; MIC [10]: 0.098 µg/mL; MIC [11]: 0.195 µg/mL; MIC [12]: 0.098 µg/mL"
"Cc1c(N2CCC(N)C2)c(F)cc2c(=O)c(C(=O)C[N+](=O)[O-])cn(C3CC3)c12 (stereo not drawn) [Example 50, 1-cyclopropyl-6-fluoro-8-methyl-7-(3-aminopyrrolidin-1-yl)-3-(2-nitroacetyl)-1,4-dihydro-4-oxoquinoline hydrochloride]",0.013 µg/mL,0.013 µg/mL,0.025 µg/mL,0.098 µg/mL,0.195 µg/mL,0.049 µg/mL,0.049 µg/mL,0.195 µg/mL,0.013 µg/mL,0.781 µg/mL,0.391 µg/mL,1.56 µg/mL,1.56 µg/mL,0.013 µg/mL,0.098 µg/mL,0.098 µg/mL,0.098 µg/mL,0.195 µg/mL,0.781 µg/mL,0.391 µg/mL,
"N#CCC(=O)c1cn(C2CC2)c2c(Cl)c(N3CC4=C(CNC4)C3)c(F)cc2c1=O [Example 44, 1-cyclopropyl-6-fluoro-8-chloro-7-(3,7-diazabicyclo[3.3.0]oct-1,5-en-3-yl)-3-(2-cyanoacetyl)-1,4-dihydro-4-oxoquinoline hydrochloride]",0.098 µg/mL,0.195 µg/mL,0.195 µg/mL,0.781 µg/mL,3.12 µg/mL,1.56 µg/mL,0.391 µg/mL,,0.195 µg/mL,6.25 µg/mL,3.12 µg/mL,12.5 µg/mL,12.5 µg/mL,0.195 µg/mL,6.25 µg/mL,6.25 µg/mL,6.25 µg/mL,25 µg/mL,25 µg/mL,25 µg/mL,"MIC ([2]; Klebsiella aerogenes, 1522E, 18 h): 0.391 µg/mL"
